Results taken from patent US20230192878A1, “METHODS, THERAPIES AND USES FOR TREATING CANCER” (PFIZER INC., priority 2020, published 2023).

Experiments:
[1] = system: H929; test: Cell surface BCMA expression after GSI, time course and washout; assay type: cell-based
Procedure: Multiple myeloma cells (MM.1S, OPM2, H929, Molp8, RPMI8226) were seeded in a 6-well plate at 800,000 cells/2 ml/well with GSI diluted at 1 μM in RPMI medium (with 0.1% DMSO). Cells were collected to evaluate cell surface BCMA expression at baseline, and then at 3 hours, 6 hours and 24 hours after addition of the GSI. After 24 hours of incubation with the GSI, cells were washed twice in PBS and re-plated in fresh 6-well plates. […] At the indicated time points, samples were stained with a ZombieNIR Viability dye (Biolegend) for 20 minutes at room temperature at 1 in 500 dilution in PBS, washed with PBS+2% FBS and further stained with anti-BCMA PE-labelled antibody diluted in PBS+2% FBS for 30 minutes at 4° C. Samples were acquired on BD Flow Cytometer and analyzed using FlowJo software. Dead cells were removed from the analysis by gating on ZombieNIR negative population. BCMA MFI was plotted as a histogram.

[2] = system: Molp8; test: Soluble BCMA (sBCMA) shedding after GSI (ELISA); assay type: cell-based, Human; set-up: unit not given here; details: Table 6 (sBCMA in supernatant, ELISA), 24 hours
[3] = system: MM.1S; test: Soluble BCMA (sBCMA) shedding after GSI (ELISA); assay type: cell-based, Human; set-up: unit not given here; details: Table 6 (sBCMA in supernatant, ELISA), 24 hours
[4] = system: Molp8-luc; test: BCMAxCD3 bispecific mediated cell killing with human T cells, with or without GSI; assay type: cell-based; details: 60 hours, with or without 1 μM GSI
Procedure: (§1) CD3^+ T cells from PBMCs (Stem Cell Technologies) were negatively selected using EasySep Human T cell enrichment kit (Stem Cell Technologies). Multiple myeloma cells expressing luciferase (MM.1S-luc, OPM2-luc, H929-luc, Molp8-luc, RPM18226-luc) were treated with 1 μM GSI […]. After 24 hours, cells were seeded with 50,000 CD3^+ pan T cells in a clear 96-well V-bottom plate. Cells were further treated with a range of BCMAxCD3 bispecific antibody concentrations with or without 1 μM GSI. 60 hours after treatment, luciferase activity in treated cells was analyzed using NeoLite reagent kit (Perkin Elmer) and acquired on VictorX multimode plate reader (Perkin Elmer). Cell viability was calculated by dividing luciferase activity of treated cells over luciferase activity of untreated control (no BCMAxCD3 bispecific antibody added).

[5] = system: H929-luc; test: as above; assay type: cell-based; details: 60 hours, with or without 1 μM GSI
Procedure: as §1

[6] = system: Raji-luc; test: BCMAxCD3 bispecific mediated cell killing of lymphoma cells with human T cells, with or without GSI; assay type: cell-based; details: 60 hours, with or without 1 μM GSI, ± SD
Procedure: CD3^+ T cells from PBMCs (Stem Cell Technologies) were negatively selected using EasySep Human T cell enrichment kit (Stem Cell Technologies). 10,000 target lymphoma cells expressing luciferase (Raji-luc) were treated with 1 μM GSI. After 24 hours, cells were seeded with 50,000 CD3^+ pan T cells in a clear 96-well V-bottom plate. Cells were further treated with a range of BCMAxCD3 bispecific concentrations with or without 1 μM GSI. 60 hours after treatment, luciferase activity in treated cells was analyzed using NeoLite reagent kit (Perkin Elmer) and acquired on VictorX multimode plate reader (Perkin Elmer). Cell viability was calculated by dividing luciferase activity of treated cells over luciferase activity of untreated control (no BCMAxCD3 bispecific antibody added).

[7] = system: MM.1S-Luc-PD-L1; test: Orthotopic MM.1S-Luc-PD-L1 multiple myeloma mouse model; assay type: in vivo, NSG mice; details: bispecific 10 μg/kg IV once (day 21), anti-PD-1 5 mg/kg IP twice a week
Procedure: MM.1 S-Luc multiple myeloma cells were engineered to express PD-L1 and are referred to as MM.1S-Luc-PD-L1. MM.1S-Luc-PD-L1 cells were prepared as a single cell suspension of 5×10^6 cells for intravenous (IV) inoculation into NSG mice.
Tumor growth was monitored by luminescent imaging by intraperitoneal (IP) injection of luciferin solution in DPBS and imaged using Perkin Elmer IVIS Spectrum camera system. Animals were administered 2×10^7 expanded human T cells IV 19 days after tumor cell inoculation. Two days following T cell administration, a single dose of the BCMAxCD3 bispecific (10 μg/kg) was administered as a bolus IV injection. Anti-PD-1 antibody was administered twice a week as a bolus IP injection at 5 mg/kg for a total of 6 injections.
Tumor growth was monitored via imaging measurements collected twice weekly. Mice were imaged using the Perkin Elmer IVIS Spectrum camera system with automatic parameter determination and a maximum imaging time of 3 minutes. Living Image software was used to collect the data. Regions of Interest (ROIs) were drawn around the entire body of the mouse, excluding as much as possible of the tail. Background flux, as measured on the anesthesia manifold, is subtracted from each ROI. Tumor measurements are expressed as total flux expressed in photons/sec (p/s). Study was terminated at day 40 post tumor inoculation.

CCC[C@H](N[C@H]1CCc2cc(F)cc(F)c2C1)C(=O)Nc1cn(C(C)(C)CNCC(C)(C)C)cn1 [GSI, nirogacestat]
BCMA (-PE) MFI ([1]; H929, GSI 1 μM for 24 h, 3 h post wash): 15422 | BCMA (-PE) MFI ([1]; H929, GSI 1 μM for 24 h, 5 h post wash): 9313 | BCMA (-PE) MFI ([1]; H929, GSI 1 μM for 24 h, 24 h post wash): 8423 | BCMA (-PE) MFI ([1]; H929, GSI 1 μM, 3 h after GSI): 3653 | BCMA (-PE) MFI ([1]; H929, GSI 1 μM, 6 h after GSI): 3423 | BCMA (-PE) MFI ([1]; H929, GSI 1 μM, 24 h after GSI): 8245 | BCMA (-PE) MFI ([2]; Molp8, GSI 0.01 nM): 6887.3 | BCMA (-PE) MFI ([2]; Molp8, GSI 0.1 nM): 6363.4 | BCMA (-PE) MFI ([2]; Molp8, GSI 1 nM): 6072.9 | BCMA (-PE) MFI ([2]; Molp8, GSI 2.5 nM): 6765.5 | BCMA (-PE) MFI ([2]; Molp8, GSI 5 nM): 5989.3 | BCMA (-PE) MFI ([2]; Molp8, GSI 10 nM): 5958.9 | BCMA (-PE) MFI ([2]; Molp8, GSI 25 nM): 3021.7 | BCMA (-PE) MFI ([2]; Molp8, GSI 50 nM): 1044.3 | BCMA (-PE) MFI ([2]; Molp8, GSI 100 nM): 431.8 | BCMA (-PE) MFI ([2]; Molp8, GSI 500 nM): 87.3 | BCMA (-PE) MFI ([2]; Molp8, GSI 1000 nM): 51.6 | BCMA (-PE) MFI ([3]; GSI 0.01 nM): 3794.2 | BCMA (-PE) MFI ([3]; GSI 0.1 nM): 5797.5 | BCMA (-PE) MFI ([3]; GSI 1 nM): 5143.1 | BCMA (-PE) MFI ([3]; GSI 2.5 nM): 3988.3 | BCMA (-PE) MFI ([3]; GSI 5 nM): 2453.6 | BCMA (-PE) MFI ([3]; GSI 10 nM): 1661.5 | BCMA (-PE) MFI ([3]; GSI 25 nM): 630.5 | BCMA (-PE) MFI ([3]; GSI 50 nM): 279.9 | BCMA (-PE) MFI ([3]; GSI 100 nM): 21.3 | BCMA (-PE) MFI ([3]; GSI 500 nM): 151.8 | BCMA (-PE) MFI ([3]; GSI 1000 nM): 350

PF-06863135: heterodimeric humanized full-length bispecific antibody with one BCMA binding arm and one CD3 binding arm
Molp8 cell viability (% control) ([4]; BCMA × CD3 0.00001 nM): 64 ± 11.6 % control | Molp8 cell viability (% control) ([4]; BCMA × CD3 0.00005 nM): 59.1 ± 4.6 % control | Molp8 cell viability (% control) ([4]; BCMA × CD3 0.00026 nM): 58.5 ± 0.6 % control | Molp8 cell viability (% control) ([4]; BCMA × CD3 0.00128 nM): 66.7 ± 0.3 % control | Molp8 cell viability (% control) ([4]; BCMA × CD3 0.0064 nM): 55.2 ± 1.3 % control | Molp8 cell viability (% control) ([4]; BCMA × CD3 0.032 nM): 66.1 ± 4.9 % control | Molp8 cell viability (% control) ([4]; BCMA × CD3 0.16 nM): 8 ± 2 % control | Molp8 cell viability (% control) ([4]; BCMA × CD3 0.8 nM): 6.1 ± 0.7 % control | Molp8 cell viability (% control) ([4]; BCMA × CD3 4 nM): 5.2 ± 0.3 % control | H929 cell viability (% control) ([5]; BCMA × CD3 0.00001 nM): 80.2 ± 0.3 % control | H929 cell viability (% control) ([5]; BCMA × CD3 0.00005 nM): 81.1 ± 0.2 % control | H929 cell viability (% control) ([5]; BCMA × CD3 0.00026 nM): 79 ± 0.8 % control | H929 cell viability (% control) ([5]; BCMA × CD3 0.00128 nM): 77.8 ± 3.3 % control | H929 cell viability (% control) ([5]; BCMA × CD3 0.0064 nM): 81.2 ± 3^ % control | H929 cell viability (% control) ([5]; BCMA × CD3 0.032 nM): 98.6 ± 1.2 % control | H929 cell viability (% control) ([5]; BCMA × CD3 0.16 nM): 23.2 ± 7.2 % control | H929 cell viability (% control) ([5]; BCMA × CD3 0.8 nM): 11.3 ± 1.5 % control | H929 cell viability (% control) ([5]; BCMA × CD3 4 nM): 8.6 ± 3 % control | Raji Cell Viability (% control) ([6]; BCMAxCD3 0.00064 nM): 94 ± 3.7 % control | Raji Cell Viability (% control) ([6]; BCMAxCD3 0.0032 nM): 107 ± 4.5 % control | Raji Cell Viability (% control) ([6]; BCMAxCD3 0.016 nM): 105.8 ± 10.2 % control | Raji Cell Viability (% control) ([6]; BCMAxCD3 0.08 nM): 89.3 ± 5.7 % control | Raji Cell Viability (% control) ([6]; BCMAxCD3 0.4 nM): 88.1 ± 18.4 % control | Raji Cell Viability (% control) ([6]; BCMAxCD3 2 nM): 71 ± 9.7 % control | Raji Cell Viability (% control) ([6]; BCMAxCD3 10 nM): 82.1 ± 9.7 % control | Raji Cell Viability (% control) ([6]; BCMAxCD3 50 nM): 80 ± 13.2 % control | Tumor measurements expressed as total flux ([7]; day 15 post tumor cell inoculation): 1.513 × 10^7 p/s | Tumor measurements expressed as total flux ([7]; day 18 post tumor cell inoculation): 8.343 × 10^7 p/s | Tumor measurements expressed as total flux ([7]; day 20 post tumor cell inoculation): 1.788 × 10^8 p/s | Tumor measurements expressed as total flux ([7]; day 25 post tumor cell inoculation): 2.2729 × 10^7 p/s | Tumor measurements expressed as total flux ([7]; day 28 post tumor cell inoculation): 7.082 × 10^7 p/s | Tumor measurements expressed as total flux ([7]; day 32 post tumor cell inoculation): 7.076 × 10^7 p/s
